Test results from US8461362B2, “Protein phosphatase 2A-activating agents” (The Ohio State University Research Foundation, priority 2009, dated 2013).
Residues, ends and D or L forms follow the SMILES beside them. *: point of attachment. Cbz = O=C(OCc1ccccc1)*

Assays:
[1] = test system: androgen-independent prostate cancer; conditions: minimally pretreated patients with androgen-independent prostate cancer; cited from earlier work
[2] = test system: AR and its target gene product PSA in LNCaP cells; assay: Western blot of AR and PSA expression in LNCaP cells; format: cell-based; conditions: PP2A inhibitor co-treatment with VES or TS-1
Method: (§1) Cells cultured in T25 flasks were collected by scraping, and cell pellets were washed once with PBS. Cells were lysed in a lysis buffer consisting of 1% SDS, 10 mM EDTA and 50 mM Tris-HCl, pH 8.1, in the presence of a commercial protease inhibitor cocktail from Aldrich-Sigma (2 mM AEBSF, 1 mM EDTA, 130 μM bestatin, 14 μM E-64, 1 μM leupeptin, and 0.3 μM aprotinin). Following a 10-sec sonication using 20% output in a Virsonic 300 sonicator (Virtis, Gardiner N.Y.) to disrupt cellular organelles and genomic DNA, cell lysates were centrifuged at 15,200×g for 15 minutes. One μL of the suspension was used for protein determination using a colorimetric BCA assay (Pierce, Rockford, Ill.), and to the remaining solution was added an equivalent volume of 2×SDS-polyacrylamide gel electrophoresis sample loading buffer (62.5 mM Tris-HCl, pH 6.8, 4% SDS, 5% β-mercaptoethanol, 20% glycerol, and 0.1% bromophenol blue), and boiled for 5 min. Equal amounts of proteins were resolved in 8% SDS-polyacrylamide gels, and transferred to nitrocellulose membranes using a semidry transfer cell. The transblotted membrane was washed twice with Tris-buffered saline containing 0.1% Tween 20 (TBST). After blocking with TBST containing 5% nonfat milk for 40 min, the membrane was incubated with the appropriate primary antibody in TBST-1% nonfat milk at 4° C. overnight. All primary antibodies were diluted 1:1000 in 1% nonfat milk-containing TBST. After treatment with the primary antibody, the membrane was washed three times with TBST for a total of 15 min, followed by incubation with goat anti-rabbit or anti-mouse Immunoglobulin G (IgG)-horseradish peroxidase conjugates (diluted 1:2000) for 1 h at room temperature and four washes with TBST for a total of 1 h. The immunoblots were visualized by enhanced chemiluminescence.

Sp1 = Sp1 protein expression, stability and ubiquitination in LNCaP cells; format: cell-based; conditions: proteasome inhibition, LNCaP cells treated with TS-1
Method: as §1
LNCaP cells were co-transfected with 5 μg each of Flag-Sp1 and HA-ubiquitin plasmids in an Amaxa Nucleofector using a LNCaP-specific nucleofector kit. These transiently transfected cells were seeded in 6-well plates at 2×10^5 per well. After 48-h incubation, cells were exposed to VES or TS-1 at the indicated concentration for 48 h, and lysed by a radioimmunoprecipitation assay lysis buffer (Santa Cruz Biotechnology) in the presence of a freshly prepared cocktail of phosphatase and protease inhibitors (2 mmol/L AEBSF, 1 mM EDTA, 130 μM bestatin, 14 μM E-64, 1 μM leupeptin, and 0.3 μM aprotinin, 2 mM imidazole, 1 mM sodium fluoride, 1.15 mM sodium molybdate, 1 mM sodium orthovanadate, and 4 mmol/L sodium tartrate dihydrate). After centrifugation at 13,000×g for 15 min, the supernatants were collected, preincubated with protein A/G agarose (Santa Cruz Biotechnology) for 15 min, and centrifuged at 1,000×g for 5 min. Supernatant (20 μL) were stored at 4° C. to be used as input, whereas the remaining supernatant was exposed to 4 μg of anti-Sp1 antibodies at 4° C. for 12 h, followed by protein A/G agarose beads at 4° C. for another 2 h. After brief centrifugation, immunoprecipitates were collected, washed with the aforementioned lysis buffer four times, suspended in 2×SDS sample buffer, and subjected to Western blot analysis with antibodies against HA and Flag.

SMILES	protection of Sp1 from TS-1-facilitated ablation (Sp1)	further results
Cn1cncc1[C@@](N)(c1ccc(Cl)cc1)c1ccc2c(c1)c(-c1cccc(Cl)c1)cc(=O)n2C [R115777]	–	anti-tumor activity in patients [1]: little anti-tumor activity
C=C1[C@@H](O)[C@@H]2O[C@]3(CC[C@H](/C=C/[C@@H](C)[C@@H]4CC(C)=C[C@@]5(O[C@H](C[C@@](C)(O)C(=O)O)CC[C@H]5O)O4)O3)CC[C@H]2O[C@@H]1[C@@H](O)C[C@H](C)[C@H]1O[C@@]2(CCCCO2)CC[C@H]1C [okadaic acid]	–	protection from VES/TS-1 suppression of phosphorylation or expression of JNK, Sp1 and AR [2]: could protect cells from the suppressive effect
CC(C)C[C@@H](C=O)NC(=O)[C@H](CC(C)C)NC(=O)[C@H](CC(C)C)NC(=O)OCc1ccccc1 [MG-132] (Cbz-Leu-Leu-Leu-aldehyde)	protected Sp1 from TS-1-facilitated ablation	–
CC[C@H](C)[C@H](NC(=O)[C@H]([C@@H](C)CC)N(C)C(C)=O)C(=O)N[C@H](C(=O)N[C@@H](CC(C)C)C(=O)[C@@]1(C)CO1)[C@@H](C)O [epoxomicin]	protected Sp1 from TS-1-facilitated ablation	–
